Measured values taken from patent publication EP2631232B1, “Halogen derivatives of benzo[b]furans useful as anti-neoplastic or anti-proliferative drugs” (Centrum Badan Molekularnych I Makromolekularnych Pan, priority 2012, dated 2013).

What was measured:
[1] = system: HUVEC cells (normal human endothelial cells); test: MTT cytotoxicity test, normal HUVEC cells; format: cell-based; conditions: for toxicity to normal HUVEC cells (in words): 48 hours of incubation; for IC50: Homo sapiens, MTT, 48h incubation
Procedure: (§1) A number of halogen derivatives of benzo[b]furans were tested for cytotoxic properties against four cell lines. The tests were conducted by means of MTT where yellow tetrazole salt was processed by the dehydrogenases in mitochondria of live cells into violet formazan, in cell lines mentioned below: • HeLa cells (uterine cervix cancer); • HL60 cells (human acute myelogenous leukaemia); • K562 cells (human chronic myelogenous leukaemia), and • HUVEC cells (normal human endothelial cells). • 1. HeLa, K562, HL 60, and HUVEC cells, 7 thousand cells per well (in 200 µl of the medium) were disseminated on 96-well plates. Cells were incubated overnight in the incubator (37°C, 5% CO2). • 2. Test compounds were dissolved in DMSO; 2µL solution amounts were added to the cells. Final concentrations of the culture: 1mM, 10µM, 100nM, 1nM. Control: DMSO-containing cells, final concentration of which amounted to 1% in the culture. • 3. Cytotoxicity test (MTT) of test compounds after 48h incubation. After 48h incubation of HeLa, K562, HL60, or HUVEC cells with test compounds, 25 µl of MTT per well added (input concentration = 5mg/ml) to the mixture. MTT, yellow tetrazole salt was reduced to violet formazan by mitochondrial dehydrogenases of live cells; the volume of formazan was measured spectrophotometrically. After 2h incubation of cells with MTT in the incubator (37°C; 5% CO2), cells were lysed in lysing buffer containing SDS and DMF (95 µl/well). The lysis was conducted overnight at 37°C and with 5% CO2. • 4. MTT results were taken from FLUOstar Omega reader (wavelengths: 570 and 650 nm). Absorbance measured at 570 nm was proportional to the number of live cells. The plates were analysed by reading out the absorbance values at 570 nm and 650 nm wavelengths. The values of IC50 (concentration of compound producing a 50% cell mortality) was taken from the diagram by means of interpolation for a 50% cell survival rate.

[2] = system: HL60 cells (human acute myelogenous leukaemia); test: MTT cytotoxicity test, HL60 cells; format: cell-based; conditions: for toxicity to HL60 cells (in words): 48 hours of incubation; for IC50: Homo sapiens, HL-60, MTT, 48h incubation
Procedure: as §1

[3] = system: K562 cells (human chronic myelogenous leukaemia); test: MTT cytotoxicity test, K562 cells; format: cell-based; conditions: for toxicity to K562 cells (in words): 48 hours of incubation; for IC50: Homo sapiens, MTT, 48h incubation
Procedure: as §1

[4] = system: HeLa cells (uterine cervix cancer); test: MTT cytotoxicity test, HeLa cells; format: cell-based; conditions: for toxicity to HeLa cells (in words): 48 hours of incubation; for IC50: Homo sapiens, MTT, 48h incubation
Procedure: as §1

caspase 3 and 7 = test: Apo-ONE Homogeneous Caspase-3/7 Assay in K562 cells; format: cell-based, human
Procedure: The above mentioned toxicity of compound 1a was tested for its origin, i.e. induction of necrosis or apoptosis in the K562 cells of chronic myelogenous leukaemia. Accordingly: • K562 cells in RPMI 1640 medium containing a 10% calf foetal serum and antibiotics, were disseminated on a 96-well plate, in the amount of 20 x 10^3 cells per well. Cells were cultured for 24 hours in the incubator (5% CO2; 37°C). • Compound 1a was dissolved in DMSO and added to the cell medium; final concentration in the cell culture was 25 μM (5 x IC50). Negative control was established by means of cells cultured in the presence of DMSO at the concentration of 1%. Positive control was established by means of cells cultured in the presence of 1 μM staurosporin, a strong apoptosis inductor. The cells were incubated with the compounds for 18 hours in the incubator (5% CO2; 37°C). • The test to determine the activity of […] […] Due to proteolytic activity of caspases, the pro-fluorescent substrate was transformed into a fluorescent product the amount of which could be determined by means of fluorescence intensity measurement. • Fluorescence intensity in each well was measured on the plate by means of FLUOStar Omega (BMG-Labtech, Germany) plate reader, at the exciting light wavelength of 485 nm and emission of 520 nm. Fluorescence intensity was proportional to the activity of caspase 3 and 7 in the sample.

[5] = system: K562 cells (human chronic myelogenous leukaemia); conditions: comparison value for cis-platinum; cited from earlier work

Structure (SMILES) | toxicity to normal HUVEC cells (in words) [1] | IC50 [1] | toxicity to HL60 cells (in words) [2] | IC50 [2] | toxicity to K562 cells (in words) [3] | IC50 [3] | toxicity to HeLa cells (in words) [4] | IC50 [4] | activity of caspase 3 and 7 (caspase 3 and 7; 25 µM, 18 hours incubation, compared with reference cells (K562 and K562+DMSO), Fig. 1) | activity of caspases 3 and 7 (caspase 3 and 7; 1a concentration = 25 µM, incubation time = 24h) | IC50 value against K562 cells [5]
COC(=O)c1c(C)oc2cc(C(=O)C(Br)Br)c(OC)cc12 [Compound 1c] | not toxic | > 1000 µM | toxic | 4 µM | toxic | 1 µM | toxic | 1 µM | – | – | –
COC(=O)c1c(C)oc2cc(C(=O)C(Br)Br)c(O)c(Br)c12 [Compound 1b] | not toxic | > 1000 µM | toxic | 4 µM | toxic | 1 µM | toxic | 9 µM | – | – | –
COc1cc2c(CBr)c(C(C)=O)oc2c(C(C)=O)c1OC [Compound 1a, 1,1'-[3-(bromomethyl)-5,6-dimethoxy-1-benzofuran-2,7-diyl] diethanon] | not toxic | > 1000 µM | Strong toxicity | 0.1 µM | Strong toxicity | 5 µM | toxic to neither | > 1000 µM | higher | increased | –
N.N.[Cl][Pt][Cl] [cis-platinum] | – | – | – | – | – | – | – | – | – | – | several to several dozens
COC(=O)c1c(C)oc2cc(C(=O)C(Cl)Cl)c(O)c(Cl)c12 [Compound 1e] | not toxic | > 1000 µM | specifically toxic | 3 µM | not toxic | > 1000 µM | specifically toxic | 10 µM | – | – | –
